Values after ≈ are worked out from the molar mass of the structure shown.
Tests used:
Assay type in all cases: functional
Escherichia coli [1] = assay: Antibacterial activity against extended-spectrum beta-lactamase producing Escherichia coli 12-14 after 18 to 24 hrs by standard twofold serial dilution method
Klebsiella pneumoniae [2] = assay: Antibacterial activity against Klebsiella pneumoniae 12-2 after 18 to 24 hrs by standard twofold serial dilution method
Staphylococcus aureus [3] = assay: Antibacterial activity against methicillin-sensitive Staphylococcus aureus 12-2 after 18 to 24 hrs by standard twofold serial dilution method
[4] = test system: Mycobacterium tuberculosis; assay: Antimycobacterial activity against Mycobacterium tuberculosis H37Rv ATCC 27294 by MABA method
Staphylococcus aureus [5] = assay: Antibacterial activity against methicillin-sensitive Staphylococcus aureus 12-5 after 18 to 24 hrs by standard twofold serial dilution method
Escherichia coli [6] = assay: Antibacterial activity against extended-spectrum beta-lactamase producing Escherichia coli 12-3 after 18 to 24 hrs by standard twofold serial dilution method
Escherichia coli [7] = assay: Antibacterial activity against Escherichia coli ATCC 25922 after 18 to 24 hrs by standard twofold serial dilution method
Staphylococcus aureus [8] = assay: Antibacterial activity against methicillin-resistant Staphylococcus aureus 12-2 after 18 to 24 hrs by standard twofold serial dilution method
Klebsiella pneumoniae [9] = assay: Antibacterial activity against extended-spectrum beta-lactamase producin Klebsiella pneumoniae 12-14 after 18 to 24 hrs by standard twofold serial dilution method
Klebsiella pneumoniae [10] = assay: Antibacterial activity against Klebsiella pneumoniae 12-4 after 18 to 24 hrs by standard twofold serial dilution method
[11] = test system: Staphylococcus epidermidis; assay: Antibacterial activity against methicillin-sensitive Staphylococcus epidermidis 12-3 after 18 to 24 hrs by standard twofold serial dilution method
Pseudomonas aeruginosa [12] = assay: Antibacterial activity against Pseudomonas aeruginosa 12-14 after 18 to 24 hrs by standard twofold serial dilution method
Streptococcus pneumoniae [13] = assay: Antibacterial activity against Streptococcus pneumoniae 12-18 after 18 to 24 hrs by standard twofold serial dilution method
Staphylococcus aureus [14] = assay: Antibacterial activity against methicillin-resistant Staphylococcus aureus 12-5 after 18 to 24 hrs by standard twofold serial dilution method
[15] = test system: Staphylococcus epidermidis; assay: Antibacterial activity against methicillin-sensitive Staphylococcus epidermidis 12-1 after 18 to 24 hrs by standard twofold serial dilution method
Escherichia coli [16] = assay: Antibacterial activity against extended-spectrum beta-lactamase producing Escherichia coli 12-15 after 18 to 24 hrs by standard twofold serial dilution method
Staphylococcus aureus [17] = assay: Antibacterial activity against methicillin-resistant Staphylococcus aureus 12-4 after 18 to 24 hrs by standard twofold serial dilution method
Staphylococcus aureus [18] = assay: Antibacterial activity against methicillin-sensitive Staphylococcus aureus 12-4 after 18 to 24 hrs by standard twofold serial dilution method
[19] = test system: Staphylococcus epidermidis; assay: Antibacterial activity against methicillin-resistant Staphylococcus epidermidis 12-1 after 18 to 24 hrs by standard twofold serial dilution method
Klebsiella pneumoniae [20] = assay: Antibacterial activity against extended-spectrum beta-lactamase producin Klebsiella pneumoniae 12-4 after 18 to 24 hrs by standard twofold serial dilution method
Klebsiella pneumoniae [21] = assay: Antibacterial activity against extended-spectrum beta-lactamase producin Klebsiella pneumoniae 12-3 after 18 to 24 hrs by standard twofold serial dilution method
Escherichia coli [22] = assay: Antibacterial activity against Escherichia coli 12-1 after 18 to 24 hrs by standard twofold serial dilution method
[23] = test system: Staphylococcus epidermidis; assay: Antibacterial activity against methicillin-sensitive Staphylococcus epidermidis 12-6 after 18 to 24 hrs by standard twofold serial dilution method
Pseudomonas aeruginosa [24] = assay: Antibacterial activity against Pseudomonas aeruginosa 12-12 after 18 to 24 hrs by standard twofold serial dilution method
Klebsiella pneumoniae [25] = assay: Antibacterial activity against extended-spectrum beta-lactamase producin Klebsiella pneumoniae 12-7 after 18 to 24 hrs by standard twofold serial dilution method
Escherichia coli [26] = assay: Antibacterial activity against extended-spectrum beta-lactamase producing Escherichia coli 12-2 after 18 to 24 hrs by standard twofold serial dilution method
Streptococcus pneumoniae [27] = assay: Antibacterial activity against Streptococcus pneumoniae ATCC 49619 after 18 to 24 hrs by standard twofold serial dilution method
Klebsiella pneumoniae [28] = assay: Antibacterial activity against Klebsiella pneumoniae 12-1 after 18 to 24 hrs by standard twofold serial dilution method
Staphylococcus aureus [29] = assay: Antibacterial activity against methicillin-sensitive Staphylococcus aureus 12-1 after 18 to 24 hrs by standard twofold serial dilution method
Staphylococcus aureus [30] = assay: Antibacterial activity against Staphylococcus aureus ATCC 25923 after 18 to 24 hrs by standard twofold serial dilution method
[31] = test system: Staphylococcus epidermidis; assay: Antibacterial activity against methicillin-sensitive Staphylococcus epidermidis 12-8 after 18 to 24 hrs by standard twofold serial dilution method
[32] = test system: Staphylococcus epidermidis; assay: Antibacterial activity against methicillin-resistant Staphylococcus epidermidis 12-6 after 18 to 24 hrs by standard twofold serial dilution method

SMILES | MIC (Escherichia coli [1]) [µg/mL] | MIC (Klebsiella pneumoniae [2]) [µg/mL] | MIC (Staphylococcus aureus [3]) [µg/mL] | MIC [4] [µg/mL] | MIC (Staphylococcus aureus [5]) [µg/mL] | MIC (Escherichia coli [6]) [µg/mL] | MIC (Escherichia coli [7]) [µg/mL] | MIC (Staphylococcus aureus [8]) [µg/mL] | MIC (Klebsiella pneumoniae [9]) [µg/mL] | MIC (Klebsiella pneumoniae [10]) [µg/mL] | MIC [11] [µg/mL] | MIC (Pseudomonas aeruginosa [12]) [µg/mL] | MIC (Streptococcus pneumoniae [13]) [µg/mL] | MIC (Staphylococcus aureus [14]) [µg/mL] | MIC [15] [µg/mL] | MIC (Escherichia coli [16]) [µg/mL] | MIC (Staphylococcus aureus [17]) [µg/mL] | MIC (Staphylococcus aureus [18]) [µg/mL] | MIC [19] [µg/mL] | MIC (Klebsiella pneumoniae [20]) [µg/mL] | further results
CO/N=C1/CN(c2c(F)cc3c(=O)c(C(=O)O)cn([C@@H]4C[C@@H]4F)c3c2Cl)CC1CN (some centres undefined) | 64 (≈ 145 µM) | 0.25 (≈ 0.567 µM) | 0.125 (≈ 0.284 µM) | 4 (≈ 9.07 µM) | 0.125 (≈ 0.284 µM) | 32 (≈ 72.6 µM) | 0.125 (≈ 0.284 µM) | 16 (≈ 36.3 µM) | 32 (≈ 72.6 µM) | 0.25 (≈ 0.567 µM) | 0.5 (≈ 1.13 µM) | 16 (≈ 36.3 µM) | 1 (≈ 2.27 µM) | 16 (≈ 36.3 µM) | 0.125 (≈ 0.284 µM) | 128 (≈ 290 µM) | 16 (≈ 36.3 µM) | 0.06 (≈ 0.136 µM) | 4 (≈ 9.07 µM) | 16 (≈ 36.3 µM) | MIC (Klebsiella pneumoniae [21]): 32 µg/mL (≈ 72.6 µM); MIC (Escherichia coli [22]): 1 µg/mL (≈ 2.27 µM); MIC [23]: 0.125 µg/mL (≈ 0.284 µM); MIC (Pseudomonas aeruginosa [24]): 1 µg/mL (≈ 2.27 µM); MIC (Klebsiella pneumoniae [25]): 4 µg/mL (≈ 9.07 µM); MIC (Escherichia coli [26]): 64 µg/mL (≈ 145 µM); MIC (Streptococcus pneumoniae [27]): 0.25 µg/mL (≈ 0.567 µM); MIC (Klebsiella pneumoniae [28]): 0.25 µg/mL (≈ 0.567 µM); MIC (Staphylococcus aureus [29]): 0.125 µg/mL (≈ 0.284 µM); MIC (Staphylococcus aureus [30]): < 0.008 µg/mL; MIC [31]: 2 µg/mL (≈ 4.54 µM); MIC [32]: 4 µg/mL (≈ 9.07 µM)
NC[C@H]1/C(=N\OCc2ccccc2)CN1c1cc2c(cc1F)c(=O)c(C(=O)O)cn2[C@@H]1C[C@@H]1F | 64 (≈ 137 µM) | 0.06 (≈ 0.128 µM) | 0.03 (≈ 0.064 µM) | 0.5 (≈ 1.07 µM) | 0.125 (≈ 0.267 µM) | 16 (≈ 34.2 µM) | 0.125 (≈ 0.267 µM) | 16 (≈ 34.2 µM) | 64 (≈ 137 µM) | 0.25 (≈ 0.534 µM) | 0.25 (≈ 0.534 µM) | 6 (≈ 12.8 µM) | 1 (≈ 2.13 µM) | 8 (≈ 17.1 µM) | 0.125 (≈ 0.267 µM) | > 128 | 16 (≈ 34.2 µM) | 0.03 (≈ 0.064 µM) | 4 (≈ 8.54 µM) | 8 (≈ 17.1 µM) | MIC (Klebsiella pneumoniae [21]): 32 µg/mL (≈ 68.3 µM); MIC (Escherichia coli [22]): 2 µg/mL (≈ 4.27 µM); MIC [23]: 0.125 µg/mL (≈ 0.267 µM); MIC (Pseudomonas aeruginosa [24]): 2 µg/mL (≈ 4.27 µM); MIC (Klebsiella pneumoniae [25]): 1 µg/mL (≈ 2.13 µM); MIC (Escherichia coli [26]): 128 µg/mL (≈ 273 µM); MIC (Streptococcus pneumoniae [27]): 0.25 µg/mL (≈ 0.534 µM); MIC (Klebsiella pneumoniae [28]): 0.125 µg/mL (≈ 0.267 µM); MIC (Staphylococcus aureus [29]): 0.125 µg/mL (≈ 0.267 µM); MIC (Staphylococcus aureus [30]): 0.015 µg/mL (≈ 0.032 µM); MIC [31]: 2 µg/mL (≈ 4.27 µM); MIC [32]: 16 µg/mL (≈ 34.2 µM)
